Here are results for three molecules from US20100125073A1, “BENZOFURAN AND BENZOTHIOPHENE DERIVATIVES USEFUL IN THE TREATMENT OF CANCERS OF THE CENTRAL NERVOUS SYSTEM” (priority 2006, published 2010).

The nature of data set [1]: Crossing blood brain barrier in mice. The format is in vivo, Male Ncr nude mice. The note with it: 200 mg/kg orally for 14 days. Here is the method:
Male Ncr nude mice (n=3/time point) is treated for 14 days orally with a therapeutically relevant dose of example 153 (200 mg/kg) or a vehicle control (time: Oh). Daily treatment with a high dose like this is necessary to effectively treat subcutaneously transplanted tumors in these mice. After treatment, mice are sacrified at indicated time points, blood and brain tissue is removed and analysed. The method is as described above in example 2 under “Stability in rat and human plasma”. […] Mean brain concentrations are indicated as absolute concentration and relative to plasma concentration at similar time points (from the same experiment) in the table below.

The test system of data set [2] is SK-N-DZ (human neuroblastoma) cells. Briefly: Proliferation assay (CellTiter-Glo), SK-N-DZ. The format is cell-based. Particulars: 72 after compound addition, n = 4. Here is the method:
(§1) SK-N-DZ (human neuroblastoma; ATCC# CRL-2149) or U118 MG (human glioblastoma/astrocytoma; ATCC# HTB-15) or U87 MG (human glioma; ATCC# HTB-14) or H4 (human neuroglioma; ATCC# HTB 178) cells are cultivated under standard conditions (RPMI 1640/Glutamax 2 mM/glucose 2 g/l/SoBicarbonate 2 g/1/10% FCS; 37° C. in 5% CO2 in a humid incubator). Cells are suspended using Accutase (PAA) and seeded at 1000 cells/Well in 100 μL medium/well in a 96-well plate (Greiner Kat. Nr. 655073). The test compound is added 24 Stunden after seeding. Commercial assays (CellTiter-Glo® Luminescent Cell Viability Assay; Promega Kat. Nr. G7571) are used 72 later according to the manufacturers instructions. IC50 is calculated using GraphPad Prism.
(§2) Compounds are solved in 100% DMSO and diluted 1:20 in medium before used diluted 1:10 in the test.

Data set [3] deals with U87 MG (human glioma) cells. Kind of data set: Proliferation assay (CellTiter-Glo), U87 MG. Type of data set: cell-based. The note with it: U-87 MG, n = 2. As for the experimental part:
as §1, §2

Data set [4] concerns U118 MG (human glioblastoma/astrocytoma) cells. Kind of data set: Proliferation assay (CellTiter-Glo), U118 MG. Type of data set: cell-based. The note with it: U-118-MG, n = 4. As for the experimental part: as §1, §2
For data set [5], the system named is H4 (human neuroglioma) cells. Briefly: Proliferation assay (CellTiter-Glo), H4. The format is cell-based. Particulars: n = 1. As for the experimental part:
as §1, §2

The nature of data set [6]: Stability in human plasma. The note with it: within 1 hour. The format is in vitro ADME.
Data set [7] is described as follows: Solubility in aqueous 5% dextrose. The format is physicochemical. Particulars: for solubility thermodynamic at 24 h: saline or isotonic, thermodynamic from solid, 5% Dextrose. As for the experimental part: The test compound is dissolved in an aqueous solution of 5% dextrose adjusted to the respective pH with 1n HCl. After shaking at room temperature for 24 h the probe is subjected to an ultra centrifugation process at 224000 g for 30 min. DMSO is added to the supernatant and the content of test compound is determined and quantified by HPLC employing a two point calibration curve of the test compound in DMSO.
HPLC Method: Agilent 1100 with DAD (G1315A), quat. Pump (G1311A), Autosampler CTC HTS PAL, Degaser (G1322A) and column thermostate (G1316A); Column: Zorbax Extend-C18 3.5μ; temperature: 40° C.; Eluent A: Water+5 ml Perchloric acid/1; Eluent B: Acetonitrile; flow rate: 0.7 mL/min; Gradient: 0-0.5 min 98% A, 2% B; Rampe: 0.5-4.5 min 10%, A 90% B; 4.5-6 min 10% A, 90% B; Rampe: 6.5-6.7 min 98% A, 2% B; 6.7-7.5 min 98% A, 2% B.

Data set [8] can be described thus: Stability in buffer at different pH-values. Type of data set: physicochemical. As for the experimental part:
To determine the stability of test compounds at different pH-values 0.3 mg of the dry compound is dissolved in 0.5 ml of acetonitrile and the sample is sonified for 10 seconds. Then buffer solutions are added and the samples are sonified again.
pH 2: 0.03 M citric acid/0.0082 M hydrochloric acid/0.061 M sodium chloride pH 3: 0.04 M citric acid/0.021 M sodium hydroxide/0.06 M sodium chloride pH 4: 0.056 M citric acid/0.068 M sodium hydroxide/0.044 M Sodium chloride pH 5: 0.096 M citric acid/0.2 M sodium hydroxide pH 7: 0.029 M sodium hydroxide solution/0.05 M potassium dihydrogen phosphate pH 10: 0.013 M sodium tetraborate/0.018 M sodium hydroxide
The test compound concentrations in solution is analyzed by HPLC every hour during 24 hours at 37° C.
Agilent 1100 with DAD (G1314A), binary pump (G1312A), autosampler (G1329A), column thermostat (G1316A), thermostat (G1330A), Column: Kromasil 100 C18/60×2.1 mm/3.5 μm, Column temperature: 37° C., Eluent A: Water+5 ml perchloric acid/1, Eluent B: Acetonitrile, Gradient: 0-1.0 min 98% A, 2% B; 1.0-9.0 min 2% A, 98% B; 9.0-13.0 min 2% A, 98% B; 13.0-13.5 min 98% A, 2% B; 13.5-15.0 98% A, 2% B, Flow rate: 0.75 ml/min, Detection: 210 nm

Data set [9] in a line: Stability in rat plasma. Type of data set: in vitro ADME. Particulars: within 1 hour.

On to `CS(=O)(=O)NCc1cccc(-c2ccc3c(N)c(C(=O)c4ccc(Cl)cc4Cl)oc3c2)c1` [Example 153, N-{3-[3-amino-2-(2,4-dichlorobenzoyl)-1-benzofuran-6-yl]benzyl}methanesulfonamide], for which the “crossing of the blood brain barrier” value in data set [1] is reported as “crosses the blood brain barrier”. Moreover, the “brain concentration % of Plasma concentration” value in data set [1] (0.167 h) is recorded as 9-19%; in [1] (0.5 h), 17-18%; in data set [1] (1.5 h), 12-90%. In data set [1] (male, Ncr nude, mouse, brain, po, 0.167 h), this molecule registered a concentration at 0.167 h of 600 ng/mL. This molecule registered a concentration at 0.5 h in [1] (male, Ncr nude, mouse, brain, po, 0.5 h) of 1400 ng/mL. In data set [1] (male, Ncr nude, mouse, brain, po, 1.5 h), this molecule had a concentration at 1.5 h of 1000 ng/mL. Also, the IC50 in [2] worked out at 110 nM; in data set [3], 320 nM; in [4], 120 nM; in data set [5], 170 nM.
Consider `CC(C)[C@H](N)C(=O)N(Cc1cccc(-c2ccc3c(N)c(C(=O)c4ccc(Cl)cc4Cl)oc3c2)c1)S(C)(=O)=O.Cl` [Example 366, N-{3-[3-amino-2-(2,4-dichlorobenzoyl)-1-benzofuran-6-yl]benzyl}-N-(methylsulfonyl)-L-valinamide, hydrochloride], for which the cleaved in plasma result in data set [6] and in [9] was “more than 90%” in each case. In addition, in [7] (5% dextrose, 24 h room temperature), the “degradation during solubility determination” value was “no degradation has been observed”. For the same molecule, the solubility (thermodynamic) at 24 h was determined as 360 µg/mL in [7] (aqueous 5% dextrose solution, pH 3, 24 h room temperature) and 350 µg/mL in [7] (aqueous 5% dextrose solution, pH 4, 24 h room temperature). Also, the “Amount of remaining compound” value came to 100% in data set [8] (buffer pH 2, after 24 h at 37° C.); 100% in data set [8] (buffer pH 3, after 24 h at 37° C.); 94% in [8] (buffer pH 4, after 24 h at 37° C.); 58% in [8] (buffer pH 5, after 24 h at 37° C.); 4% in [8] (buffer pH 7, after 24 h at 37° C.); 2% in [8] (buffer pH 10, after 24 h at 37° C.).
Consider `CS(=O)(=O)NCc1cccc(-c2ccc3c(N)c(C(=O)c4ccc(Cl)cc4Cl)oc3c2)c1` [N-{3-[3-amino-2-(2,4-dichlorobenzoyl)-1-benzofuran-6-yl]benzyl}methanesulfonamide], for which, in data set [7] (aqueous 5% dextrose solution, parent compound, pH not stated), the solubility at 24 h was under 0.1 µg/mL.
